# Measurements as given in patent US20220324835A1 (Nurix Therapeutics, Inc., priority 2018, published 2022).
# Experiments:
# anergic human T-cells = assay: Anergic T-cell activation assessed by IFNγ secretion (ionomycin-induced anergy); type: cell-based; details: anergic T-cells re-challenged with anti-CD3 and anti-CD28 for 24 hours, read-out: IFNγ Fold change from baseline
# Excerpt: Peripheral blood mononuclear cells (PBMC) were obtained either: 1) by using Ficoll-Paque™ (GE Healthcare) for separation of peripheral blood hematopoietic cells from buffy coats of healthy human donors; or 2) directly from LeukoPak donations. Total human primary T-cells were isolated from the PBMCs utilizing negative selection with commercial kits following the manufacturer's protocol (Miltenyi Catalog #130-096-535 (i.e., cocktail of antibodies against surface markers CD14, CD15, CD16, CD19, CD34, CD36, CD56, CD123 and CD235a were incubated with the PBMCs before passing the samples by magnetic beads for removal of cells expressing those surface markers) or StemCells Catalog #17951) to yield >95% CD3+ cells assessed by flow cytometry. The cells were activated with immobilized anti-CD3 antibody (OKT3) and soluble anti-CD28 antibody (28.2) for two days at which time they are washed and allowed to rest for three days in the absence of stimulation. They were then treated with ionomycin (Sigma) for 18-24 hours to induce anergy. Following two washes to remove the ionomycin from the samples, Cbl-b inhibitor compounds were added to the cells at the indicated concentrations (e.g. 10, 1.11 and 0.37 μM) and incubated for 1 hour. The cells were then re-challenged with anti-CD3 antibody and anti-CD28 antibody for 24 hours at which point cell free supernatants were collected and assessed for cytokines (e.g., IFNγ) by ELISA (R&D Systems or Peprotech) or Luminex multiplex kits (Procarta Life Technologies) following manufacturer's protocols.
# Cbl-b inhibitors were tested to determine their ability to induce or enhance secretion of cytokines from anergic T-cells (e.g. IFNγ), which is indicative of decreased T-cell tolerance.
# Readouts were reported as fold change over baseline. Baseline for this study was the measurement obtained from anergic human T-cells stimulated with immobilized anti-CD3 and soluble anti-CD28, wherein the T-cells were not incubated with a Cbl-b inhibitor (Table 7). For IFNγ changes greater than 2.5-fold over baseline were considered a positive response (Table 7). Compounds were ranked into bins according to their readout as follows for IFNγ: A indicates ≤2.50, B indicates 2.51-4.00 and C indicates >4.01.
# Cbl-b (residues 36-427) = Cbl-b (residues 36-427) (Homo sapiens, UniProt Q13191); assay: Cbl-b binding assay (SPR, Biacore T200); details: 20° C., 1:1 binding model
# How it was run: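 Steps: capture protein on NeutrAvidin surface; inject compound dilutions (8 or 10 points from 100 or 50 μM) 50 s; allow 90-180 s dissociation; regenerate 20 s with 0.3 M NaCl. Runs at 20° C in HEPES pH 7.5/100 mM NaCl/2% DMSO; 1:1 fitting.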
# T-cell [1] = assay: IL-2 secretion from T-cells co-stimulated with anti-CD3 and anti-CD28 antibody (Biological Example 2); type: cell-based, human; details: Homo sapiens, T-cell, primary human total T-cells, baseline = anti-CD3/anti-CD28 stimulated cells without inhibitor, read-out: IL-2 secretion, Anti-CD3/Anti-CD28 stimulation, fold change over baseline; for fold induction at 0.3 µM: 0.3 μM compound; for fold induction at 1 µM: 1 μM compound; for fold induction at 4 µM: 4 μM compound
# How it was run: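 T-cells were stimulated with anti-CD3 antibody alone or with anti-CD28 antibody, in the presence or absence of Cbl-b inhibitor. IL-2 secretion or CD25 surface staining was measured, and values expressed as fold over the uninhibited baseline […].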
# T-cell [2] = assay: IL-2 secretion from T-cells stimulated with anti-CD3 antibody alone (Biological Example 2); type: cell-based; details: primary human total T-cells, read-out: IL-2 secretion, Anti-CD3 stimulation, fold change over baseline; for fold induction at 1 µM: 1 μM compound; for fold induction at 8 µM: 8 μM compound
# Sequence of Cbl-b (residues 36-427) (Q13191 36-427): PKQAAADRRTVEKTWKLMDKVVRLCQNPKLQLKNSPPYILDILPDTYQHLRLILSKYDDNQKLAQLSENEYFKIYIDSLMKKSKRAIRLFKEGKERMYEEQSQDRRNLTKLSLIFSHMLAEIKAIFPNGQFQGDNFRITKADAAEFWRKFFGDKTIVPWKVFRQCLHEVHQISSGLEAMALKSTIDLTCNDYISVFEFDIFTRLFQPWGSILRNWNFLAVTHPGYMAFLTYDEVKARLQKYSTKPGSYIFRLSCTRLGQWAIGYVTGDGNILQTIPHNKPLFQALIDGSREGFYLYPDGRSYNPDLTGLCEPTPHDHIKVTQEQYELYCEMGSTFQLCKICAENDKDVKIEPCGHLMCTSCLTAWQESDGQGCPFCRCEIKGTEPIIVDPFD
SMILES,fold induction at 0.37 µM (anergic human T-cells),fold induction at 1.11 µM (anergic human T-cells),fold induction at 10 µM (anergic human T-cells),Kd (Cbl-b (residues 36-427)),fold induction at 0.3 µM (T-cell [1]),fold induction at 1 µM (T-cell [1]),fold induction at 4 µM (T-cell [1]),fold induction at 1 µM (T-cell [2]),fold induction at 8 µM (T-cell [2])
"C[C@H](Cc1nncn1C)c1cccc(N2Cc3c(cc(CN4CC[C@H](F)C4)cc3C(F)(F)F)C2=O)c1 [Compound 399, 6-(((S)-3-fluoropyrrolidin-1-yl)methyl)-2-(3-((R)-1-(4-methyl-4H-1,2,4-triazol-3-yl)propan-2-yl)phenyl)-4-(trifluoromethyl)isoindolin-1-one]",> 4.01,> 4.01,> 4.01,< 100 nM,5 to 7.5,> 7.5,> 7.5,0.151 to 0.2,> 0.201
"C[C@H](Cc1nncn1C)c1cccc(NC(=O)c2cc3cc(N4CCNCC4)ccc3cn2)c1 [Compound 472, N-{3-[(2R)-1-(4-methyl-4H-1,2,4-triazol-3-yl)propan-2-yl]phenyl}-6-(piperazin-1-yl)isoquinoline-3-carboxamide]",≤ 2.5,≤ 2.5,2.51 to 4,< 100 nM,< 1,1.01 to 2.5,2.51 to 5,0.101 to 0.15,0.101 to 0.15
C[C@H](Cc1nncn1C)c1cccc(N2Cc3c(cc(CN4CC(C)(O)C4)cc3C(F)(F)F)C2=O)c1 [Compound 397],≤ 2.5,> 4.01,> 4.01,< 100 nM,2.51 to 5,> 7.5,> 7.5,0.151 to 0.2,> 0.201
"Cn1cnnc1C(F)(F)[C@](C)(F)c1cccc(N2Cc3c(cc(C(=O)N4CC[C@H](O)C4)cc3C(F)(F)F)C2=O)c1 [Compound 438, 6-((S)-3-hydroxypyrrolidine-1-carbonyl)-2-(3-((R)-1,1,2-trifluoro-1-(4-methyl-4H-1,2,4-triazol-3-yl)propan-2-yl)phenyl)-4-(trifluoromethyl)isoindolin-1-one]",≤ 2.5,≤ 2.5,> 4.01,100 to 300 nM,1.01 to 2.5,2.51 to 5,> 7.5,0.101 to 0.15,> 0.201
"C[C@H](Cc1nncn1C)c1cccc(N2Cc3c(cc(CN4CC(O)C4)cc3C(F)(F)F)C2=O)c1 [Compound 393, (R)-6-((3-hydroxyazetidin-1-yl)methyl)-2-(3-(1-(4-methyl-4H-1,2,4-triazol-3-yl)propan-2-yl)phenyl)-4-(trifluoromethyl)isoindolin-1-one]",≤ 2.5,2.51 to 4,> 4.01,< 100 nM,2.51 to 5,> 7.5,> 7.5,> 0.201,> 0.201
"Cn1cnnc1C(F)(F)[C@](C)(F)c1cccc(N2Cc3c(cc(N4CCNCC4)cc3C(F)(F)F)C2=O)c1 [Compound 442, (R)-6-(Piperazin-1-yl)-2-(3-(1,1,2-trifluoro-1-(4-methyl-4H-1,2,4-triazol-3-yl)propan-2-yl)phenyl)-4-(trifluoromethyl)isoindolin-1-one]",≤ 2.5,2.51 to 4,2.51 to 4,–,2.51 to 5,> 7.5,> 7.5,> 0.201,0.051 to 0.1
"COC1CN(Cc2cc3c(c(C(F)(F)F)c2)CN(c2cccc([C@@](C)(F)C(F)(F)c4nncn4C)c2)C3=O)C1 [Compound 452, (R)-6-((3-methoxyazetidin-1-yl)methyl)-2-(3-(1,1,2-trifluoro-1-(4-methyl-4H-1,2,4-triazol-3-yl)propan-2-yl)phenyl)-4-(trifluoromethyl)isoindolin-1-one]",≤ 2.5,2.51 to 4,> 4.01,< 100 nM,2.51 to 5,5 to 7.5,> 7.5,0.151 to 0.2,> 0.201
Cn1cnnc1C(F)(F)[C@](C)(F)c1cccc(N2Cc3c(cc(CN4CC[C@@H](F)C4)cc3C(F)(F)F)C2=O)c1 [Compound 450],2.51 to 4,2.51 to 4,> 4.01,< 100 nM,2.51 to 5,> 7.5,> 7.5,> 0.201,> 0.201
"C[C@H](Cc1nncn1C)c1cccc(N2Cc3c(cc(CN4CC[C@](C)(O)C4)cc3C(F)(F)F)C2=O)c1 [Compound 398, 6-(((S)-3-hydroxy-3-methylpyrrolidin-1-yl)methyl)-2-(3-((R)-1-(4-methyl-4H-1,2,4-triazol-3-yl)propan-2-yl)phenyl)-4-(trifluoromethyl)isoindolin-1-one]",≤ 2.5,> 4.01,> 4.01,< 100 nM,2.51 to 5,5 to 7.5,> 7.5,0.101 to 0.15,> 0.201
"Cc1n[nH]c(C)c1-c1cc2c(c(C(F)(F)F)c1)CN(c1cccc(C3(Cc4nncn4C)COC3)c1)C2=O [Compound 385, 6-(3,5-dimethyl-1H-pyrazol-4-yl)-2-(3-{3-[(4-methyl-4H-1,2,4-triazol-3-yl)methyl]oxetan-3-yl}phenyl)-4-(trifluoromethyl)-2,3-dihydro-1H-isoindol-1-one]",≤ 2.5,≤ 2.5,> 4.01,< 100 nM,1.01 to 2.5,2.51 to 5,> 7.5,0.101 to 0.15,> 0.201
